Results published in US7790700B2, “Derivatives of partially desulphated glycosaminoglycans endowed with antiangiogenic activity and devoid of anticoagulating effect” (Sigma-Tau Industrie Farmaceutiche Riunite S.p.A., priority 2000, dated 2010).

How the values were obtained:
CAM = CAM test in the presence of corticosteroids, Lapierre et al. Table III; cited from earlier work
[1] = target: T1, FGFR/FGF2/HSPG ternary complex (Homo sapiens, UniProt P09038); test: Inhibition of FGF2-mediated intercellular adhesion of CHO-K1 and CHO-745flg cells; format: cell-based, Chinese hamsters
T1 construct: FGFR-1 made by transfected HSPG-deficient CHO 745/flg cells; HSPGs on fixed CHO-K1 cells
Source text: To this end an in-vitro model was designed capable of assessing the interference of the various different heparin derivatives with bFGF binding to its own receptor.
These latter cells were stably transfected with cDNA for green fluorescent protein and for this reason could be observed under the fluorescence microscope with a combination of filters for the detection of green emission. In brief, the technique is based on the possibility that the two types of cells may interact (form stable bonds) only if FGF is added to the two cell types. In fact, in this case, the heparan sulphates of the CHO-745flg cells will bind to FGF, which in turn will bind to the CHO-K1 cells, establishing a bridge. The binding that occurs is detectable as a result of the green fluorescence emitted by the CHO-745flg cells.
CHO-K1 cells were seeded at a density of 90,000 cells/cm^2 in 24-well plates. After 24 hours the cells were fixed in 3% glutaraldehyde in PBS for 2 hours at 4° C. and washed with 0.1 M glycine/PBS. On the fixed monolayers CHO 745/flg cells, transfected with FGFR-1, at a density of 50,000 cells/cm^2 in DMEM containing 10 mM EDTA, 30 ng/ml FGF-2 and increasing doses of the test compounds. After 2 hours' incubation at 37° C., the adhering cells were counted under the inverted microscope. The results were expressed as percentage of the number of cells adhering compared to those measured in the absence of the test compounds.

[2] = tested on: L6-WT1 cells (rat myoblasts transfected with FGFR-1); test: Inhibition of DNA synthesis in L6 cells transfected with FGFR-1; format: cell-based; settings: test compound 100 μ/ml
Method: L6-WT1 cells (rat myoblasts transfected with FGFR-1) were seeded at a density of 25,000 cells/cm^2 in 48-well plates in DMEM+ 10% FCS. After 24 hours the cells were washed with serum-free medium and incubated for 48 hours with DMEM+ 0.5% FCS. The cells were then incubated for 16 hours with FGF-2 at the concentrations of 15 and 30 ng/ml in the presence or absence of the test compounds (all at 100 μ/ml). At the end of the incubation 3H-thymidine (0.25 μCi/well) was added without changing the medium. After 6 hours, precipitable TCA was measured. Each experimental point is the mean of 3 determinations.

BAEC cells = test: Test of cell proliferation in BAEC; format: cell-based, bovine; settings: 30 ng/ml FGF-2, 3 days, crystal-violet
Method: BAEC cells at the 7th pass were seeded at a density of 2,500 cells/cm^2 in 96-well in EBM medium without bovine brain extract and hEGF. To this medium were added 30 ng/ml of FGF-2 and each of the test compounds at 5 concentrations ranging from 10 ng/ml to 100 μg/ml. After 3 days the cells were fixed and stained with crystal-violet and the optical density was determined by means of an ELISA microplate reader. Each experimental point was done in quadruplicate and the ID50 was calculated.

foetal BAEC GM 7373 = test: Test of cell proliferation in foetal BAEC GM 7373; format: cell-based, bovine; settings: GM7373, 10 ng/ml FGF-2, cell count
Method: GM7373 cells were seeded at a density of 70,000 cells/cm^2 in 96-well plates in MEM+ 10% FCS medium. After 24 hours, the cells were washed with serum-free medium and treated with 10 ng/ml of FGF-2 in medium containing 0.4% FCS. After 8 hours, the test compounds were added to the medium at 5 concentrations ranging from 10 ng/ml to 100 μg/ml. After a further 16 hours, the cells were trypsinised and counted in a Burker chamber. The ID50 was calculated for each compound and the results are the means of 2 experiments in triplicate.

[3] = tested on: chick embryo chorioallantoic membrane; test: Angiostatic activity on CAM model (gelatin sponge); format: in vivo
Method: For the study of angiogenesis the model used was the chick embryo chorioallantoic membrane model (Ribatti e al. Int. J. Dev. Biol., 40, 1189 (1996)).
300 embryonated hens' eggs were incubated at 37° C. in constant humidity conditions. On the 3rd day of incubation, after aspirating 2-3 ml of albumen from the acute pole of the egg so as to detach the CAM from the shell, a window was cut with scissors in the shell. The vessels underlying the CAM were thus exposed. The window was closed with a transparent glass panel and the eggs were put back into the incubator. On the 8th day of incubation, in sterile conditions, the CAMs were treated according to the protocol described below using a technique developed recently (Ribatti et al. J. Vasc. Res. 34, 455 (1997)), which involves the use of sterile gelatin sponges measuring 1 mm^2 in size. […] The sponges were first rested on the surface of the CAM, and then 3 μl of solution of the test substance were pipetted onto the surface of the sponge. The CAMs were examined daily using a Zeiss SR stereomicroscope equipped with a photographic device. The experiments were discontinued on the 12th day of incubation, when an overall assessment of the angiogenic activity of the molecules was carried out, expressed as percentage inhibition in relation to the number of experiments initiated and completed (Table 9). In addition, for compound ST1514, assayed at the concentration of 100 μg/embryo, a macroscopic quantitative evaluation of the angiostatic activity was also carried out according to the technique proposed by Brooks et al. (Science, 264, 569, (1994)), counting the number of vessels surrounding the sponge. The number of vessels was compared with that of the control sponges treated with PBS (vehicle of the test compound) and with FGF-2 (positive control).

Endothelial Cell = test: Endothelial cell proliferation (Table 11); format: cell-based; settings: Table 11, endothelial cell proliferation
[4] = background table, structure/antimetastatic activity; cited from earlier work
[5] = Evaluation of heparin toxicity in Balb/c mice; format: in vivo; settings: q2dx5
Method: 20 6-week-old female Balb/c mice weighing 20 g (Harlan), divided into groups by casual randomisation, were treated with heparin sodium, as a reference, and with the compound according to the present invention called ST1514. The treatment schedule was of the q2dx5 type, i.e. 5 total administrations at intervals of 2 days, administering 200 μl/mouse of 50 mg/kg/10 ml and 25 mg/kg/10 ml solutions subcutaneously.
48 hours after the last administration of the test substances a blood sample is taken for full blood count and haematological analysis.
Blood sampling: the mice are placed in a hermetically sealed box, into which is insufflated CO2 in an amount sufficient to stun the animal. Blood is then taken from the retro-orbital plexus of each animal (approximately 1 ml of blood/mouse) which is distributed in amounts of 0.4 ml of blood/mouse in Eppendorf test tubes containing 20 μl of Vister heparin (5000 U/ml) for carrying out the full blood count and haematological analysis; and the same amount of blood is distributed in other Eppendorf test tubes containing 50 μl of 3.8% sodium citrate in order to perform prothrombin time determinations. After taking the blood sample, each animal is sacrificed by cervical dislocation.
Full blood count: the appliance (Cell Analyzer 580 A, DELCON) is used according to the standard procedure described in the operating manual. The blood sample (25 μl) is taken by the dilutor and brought up to a volume of 10 ml (dil. 1:400) with isotonic solution (PLTA saline, DELCON). From this solution (called solution A), the dilutor automatically takes a sample of 100 μl and brings it up to a volume of 10 ml (dil. 1:100), thus obtaining solution B. To solution A are added 3 drops of Emosol (DELCON) for lysis of the red blood cells. This solution is used for the WBC reading. Solution B, on the other hand, is used for the RBC and platelet (PLT) readings. Each sample is read in duplicate.
None of the study treatment groups presents significant differences in the numbers of white blood cells as compared to the control group.

[6] = 50 mg/kg and 25 mg/kg subcutaneously

T1 sequence (P09038 143-288, one chain of several): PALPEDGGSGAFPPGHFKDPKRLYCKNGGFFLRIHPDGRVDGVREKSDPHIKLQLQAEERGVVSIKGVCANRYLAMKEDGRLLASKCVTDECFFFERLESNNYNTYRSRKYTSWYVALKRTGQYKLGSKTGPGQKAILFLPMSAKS

Substance: 2-O-desulfated heparin
- antiangiogenic activity relative to heparin (in words) (CAM): partly maintained the antiangiogenic activity of heparin

Substance: Heparin
- Inhibition (ID50) of intercellular adhesion ([1]; 30 ng/ml FGF-2, 2 hours at 37° C., 6 concentrations 1 ng/ml to 100 μg/ml): 100
- Cell-Cell Adh. (ID50, ng/mL) ([1]; Table 11, FGF2-mediated cell-cell adhesion): 100 ng/mL
- ID50, FGF2-mediated cell-cell adhesion test ([1]; text b166): 0.1 µg/mL
- Incorporation of 3H-thymidine (% vs. control) ([2]; FGF-2 15 ng/ml): 50 % vs. control
- Incorporation of 3H-thymidine (% vs. control) ([2]; FGF-2 30 ng/ml): 74 % vs. control
- Inhibition (ID50) of cell proliferation (BAEC cells): 100 µg/mL
- Inhibition (ID50) of cell proliferation (foetal BAEC GM 7373): 2 µg/mL
- CAM (% inhibition) ([3]; 100 μg/embryo): 0%
- angiostatic activity on CAM (in words) ([3]; remark below Tables 9 and 10): no activity
- Cell Prolif. (ID50, ng/mL) (Endothelial Cell): 2 000 ng/mL
- % inhibition (antimetastatic activity) [4]: 97%

Substance: heparin sodium
- platelets compared to the control group ([5]; 25 mg/kg subcutaneously): significant platelet deficiency
- haematoma at the inoculum site [5, 6]: marked haematoma at the inoculum site
- liver at autopsy [5, 6]: livers with abnormal characteristics
- red blood cells compared to the control group ([5]; 50 mg/kg and 25 mg/kg subcutaneously, 48 hours after last administration): reduction in red blood cells

Substance: FGF-2: basic fibroblast growth factor, positive control with potent angiogenic activity on the CAM
- N. vessels at sponge/CAM interface ([3]; 1 μg/embryo, positive control, macroscopic quantitative evaluation (Brooks)): 50 + 4
